Results from patent US8278345B2, “Inhibitors of glutaminyl cyclase” (Probiodrug AG, priority 2006, dated 2012).
Like-named read-outs stand apart in the source and are kept apart here.

Biological target: hQC (Homo sapiens, UniProt Q16769)
Assay: Inhibitor assay for glutaminyl cyclase activity (fluorometric, H-Gln-βNA / H-Gln-AMC)
Assay type: biochemical
Summary of the method: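 Ki values came from fitting progress curves to a competitive inhibition model; rapid screens used 4 mM inhibitor with substrate at KM. QC activity was read at 30 °C via auxiliary pyroglutamyl aminopeptidase releasing βNA (0.2 mM H-Gln-βNA, 0.2 M Tris pH 8.0, 20 mM EDTA) or AMC (0.05 M Tris pH 8.0, 5 mM EDTA).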

[1] = compound from preparative synthesis, purified, read-out: IC50 hQC

Sequence of hQC (Q16769 29-361): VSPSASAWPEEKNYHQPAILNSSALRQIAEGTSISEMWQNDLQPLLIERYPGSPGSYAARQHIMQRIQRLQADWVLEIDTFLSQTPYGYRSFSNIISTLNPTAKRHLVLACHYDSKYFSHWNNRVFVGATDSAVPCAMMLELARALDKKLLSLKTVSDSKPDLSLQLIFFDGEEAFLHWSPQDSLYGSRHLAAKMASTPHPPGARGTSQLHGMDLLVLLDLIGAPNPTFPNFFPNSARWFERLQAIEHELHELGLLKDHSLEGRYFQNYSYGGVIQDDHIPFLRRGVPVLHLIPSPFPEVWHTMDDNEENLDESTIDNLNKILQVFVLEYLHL

Compound | IC50 (read-out: IC50) [µM] | IC50 [1] [µM]
CC(=O)C1=C(O)C(=O)N(c2ccc3[nH]cnc3c2)C1c1ccco1 (stereo not shown) [Compound 366, 4-Acetyl-1-(1H-benzoimidazol-5-yl)-5-furan-2-yl-3-hydroxy-1,5-dihydro-pyrrol-2-one] | 2.38 | 
CC1=C(O)C(=O)N(CCCn2ccnc2)C1C (stereo not shown) [Compound 31, 3-Hydroxy-1-(3-imidazol-1-yl-propyl)-4,5-dimethyl-1,5-dihydro-pyrrol-2-one] | 6.7 | 
CC(=O)C1=C(O)C(=O)N(c2ccc3[nH]cnc3c2)C1C1COC(C)(C)O1 (stereo not shown) [Compound 295, 4-Acetyl-1-(1H-benzoimidazol-5-yl)-5-(2,2-dimethyl-[1,3]dioxolan-4-yl)-3-hydroxy-1,5-dihydro-pyrrol-2-one] | 9.85 | 
CCC1C(c2ccccc2)=C(O)C(=O)N1CCCn1ccnc1 (stereo not shown) [Compound 108, 5-Ethyl-3-hydroxy-1-(3-imidazol-1-yl-propyl)-4-phenyl-1,5-dihydro-pyrrol-2-one] | 0.4 | 
O=C1C(O)=C(c2cccc(O)c2)C(c2ccc(O)c(Br)c2)N1c1ccc2[nH]cnc2c1 (stereo not shown) [Compound 294, 1-(1H-Benzoimidazol-5-yl)-5-(3-bromo-4-hydroxy-phenyl)-3-hydroxy-4-(3-hydroxy-phenyl)-1,5-dihydro-pyrrol-2-one] | 5.71 | 
O=C(C1=C(O)C(=O)N(c2ccc3[nH]cnc3c2)C1c1ccc(Cl)c(C(F)(F)F)c1)c1cc2ccccc2s1 (stereo not shown) [Compound 257, 4-(Benzo[b]thiophene-2-carbonyl)-1-(1H-benzoimidazol-5-yl)-5-(4-chloro-3-trifluoromethyl-phenyl)-3-hydroxy-1,5-dihydro-pyrrol-2-one] | 3.37 | 
O=C1C(O)=C(c2c[nH]c3ccccc23)C(C(F)(F)F)N1CCCn1ccnc1 (stereo not shown) [Compound 131, 3-Hydroxy-1-(3-imidazol-1-yl-propyl)-4-(1H-indol-3-yl)-5-trifluoromethyl-1,5-dihydro-pyrrol-2-one] | 1.3 | 
CC(C)C1=C(O)C(=O)N(c2ccc3[nH]cnc3c2)C1c1ccc(O)c(Br)c1 (stereo not shown) [Compound 377, 1-(1H-Benzoimidazol-5-yl)-5-(3-bromo-4-hydroxy-phenyl)-3-hydroxy-4-isopropyl-1,5-dihydro-pyrrol-2-one] | 1.48 | 
CC(C)/C=C/C1C(c2ccc(O)cc2)=C(O)C(=O)N1CCCn1ccnc1 (stereo not shown) [Compound 153, 3-Hydroxy-4-(4-hydroxy-phenyl)-1-(3-imidazol-1-yl-propyl)-5-(3-methyl-but-1-enyl)-1,5-dihydro-pyrrol-2-one] | 2.2 | 
O=C1C(O)=C(c2ccccc2)C(c2ccc(Cl)c(C(F)(F)F)c2)N1c1ccc2[nH]cnc2c1 (stereo not shown) [Compound 305, 1-(1H-Benzoimidazol-5-yl)-5-(4-chloro-3-trifluoromethyl-phenyl)-3-hydroxy-4-phenyl-1,5-dihydro-pyrrol-2-one] | 1.75 | 
CC(C)CC(=O)C1=C(O)C(=O)N(c2ccc3[nH]cnc3c2)C1c1cc[nH]n1 (stereo not shown) [Compound 427, 1-(1H-Benzoimidazol-5-yl)-3-hydroxy-4-(3-methyl-butyryl)-5-(1H-pyrazol-3-yl)-1,5-dihydro-pyrrol-2-one] | 7.96 | 
CC(C)CC(=O)C1=C(O)C(=O)N(c2ccc3[nH]cnc3c2)C1CCC(=O)O (stereo not shown) [Compound 447, 3-[1-(1H-Benzoimidazol-5-yl)-4-hydroxy-3-(3-methyl-butyryl)-5-oxo-2,5-dihydro-1H-pyrrol-2-yl]-propionic acid] | 2.56 | 
CC(=O)C1=C(O)C(=O)N(c2ccc3[nH]cnc3c2)C1c1ccc(O)c(Br)c1 (stereo not shown) [Compound 333, 4-Acetyl-1-(1H-benzoimidazol-5-yl)-5-(3-bromo-4-hydroxy-phenyl)-3-hydroxy-1,5-dihydro-pyrrol-2-one] | 0.76 | 
Cc1ccc2c(C3C(c4c[nH]c5ccccc45)=C(O)C(=O)N3c3ccc4[nH]cnc4c3)c[nH]c2c1 (stereo not shown) [Compound 320, 1-(1H-Benzoimidazol-5-yl)-3-hydroxy-4-(1H-indol-3-yl)-5-(6-methyl-1H-indol-3-yl)-1,5-dihydro-pyrrol-2-one] | 9.49 | 
CCC1C(c2c[nH]c3ccccc23)=C(O)C(=O)N1CCCn1ccnc1 (stereo not shown) [Compound 142, 5-Ethyl-3-hydroxy-1-(3-imidazol-1-yl-propyl)-4-(1H-indol-3-yl)-1,5-dihydro-pyrrol-2-one] | 0.4 | 
O=C1C(O)=C(c2c[nH]c3ccccc23)C(c2ccccc2)N1CCCn1ccnc1 (stereo not shown) [Compound 127, 3-Hydroxy-1-(3-imidazol-1-yl-propyl)-4-(1H-indol-3-yl)-5-phenyl-1,5-dihydro-pyrrol-2-one] | 0.04 | 0.434
Cc1ccc(C2C(c3ccccc3)=C(O)C(=O)N2CCCn2ccnc2)o1 (stereo not shown) [Compound 84, 3-Hydroxy-1-(3-imidazol-1-yl-propyl)-5-(5-methyl-furan-2-yl)-4-phenyl-1,5-dihydro-pyrrol-2-one] | 2.2 | 
COc1ccc(C2C(c3c[nH]c4ccccc34)=C(O)C(=O)N2CCCn2ccnc2)cc1 (stereo not shown) [Compound 121, 3-Hydroxy-1-(3-imidazol-1-yl-propyl)-4-(1H-indol-3-yl)-5-(4-methoxy-phenyl)-1,5-dihydro-pyrrol-2-one] | 0.04 | 
CCC1=C(O)C(=O)N(CCCn2ccnc2)C1/C=C/c1ccccc1 (stereo not shown) [Compound 235, 4-Ethyl-3-hydroxy-1-(3-imidazol-1-yl-propyl)-5-(styryl)-1,5-dihydro-pyrrol-2-one] | 5.8 | 
CC1=C(O)C(=O)N(c2ccc3[nH]cnc3c2)C1c1coc2ccccc2c1=O (stereo not shown) [Compound 356, 1-(1H-Benzoimidazol-5-yl)-3-hydroxy-4-methyl-5-(4-oxo-4H-chromen-3-yl)-1,5-dihydro-pyrrol-2-one] | 3.91 | 
O=C1C(O)=C(c2ccccc2)C(c2ccc(CO)o2)N1CCCn1ccnc1 (stereo not shown) [Compound 91, 3-Hydroxy-5-(5-hydroxymethyl-furan-2-yl)-1-(3-imidazol-1-yl-propyl)-4-phenyl-1,5-dihydro-pyrrol-2-one] | 1.3 | 
O=C1C(O)=C(c2ccc(O)cc2)C(c2cccs2)N1CCCn1ccnc1 (stereo not shown) [Compound 173, 3-Hydroxy-4-(4-hydroxy-phenyl)-1-(3-imidazol-1-yl-propyl)-5-thiophen-2-yl-1,5-dihydro-pyrrol-2-one] | 0.04 | 
O=C(O)CCC1C(C(=O)C2CCCCC2)=C(O)C(=O)N1c1ccc2[nH]cnc2c1 (stereo not shown) [Compound 361, 3-[1-(1H-Benzoimidazol-5-yl)-3-cyclohexanecarbonyl-4-hydroxy-5-oxo-2,5-dihydro-1H-pyrrol-2-yl]-propionic acid] | 8.95 | 
O=C(C1=C(O)C(=O)N(c2ccc3[nH]cnc3c2)C1c1ccnc2ccccc12)C1CCCCC1 (stereo not shown) [Compound 293, 1-(1H-Benzoimidazol-5-yl)-4-cyclohexanecarbonyl-3-hydroxy-5-quinolin-4-yl-1,5-dihydro-pyrrol-2-one] | 0.22 | 
CCCCCC1=C(O)C(=O)N(CCCn2ccnc2)C1c1cccc(Cl)c1 (stereo not shown) [Compound 216, 5-(3-Chloro-phenyl)-3-hydroxy-1-(3-imidazol-1-yl-propyl)-4-pentyl-1,5-dihydro-pyrrol-2-one] | 0.04 | 0.236
O=C1C(O)=C(c2ccc(O)cc2)C(c2ccc(CO)o2)N1CCCn1ccnc1 (stereo not shown) [Compound 161, 3-Hydroxy-5-(5-hydroxymethyl-furan-2-yl)-4-(4-hydroxy-phenyl)-1-(3-imidazol-1-yl-propyl)-1,5-dihydro-pyrrol-2-one] | 0.4 | 
